Assay results as given in US20260345585A1, “DIETARY SUPPLEMENT COMPRISING A PREBIOTIC AND ANTIOXIDANT” (N.V. Nutricia, priority 2023, published 2026).

Columns and labels:
RAW264.7 macrophages [1] = assay: Macrophage proliferation (CCK-8 viability of LPS-stimulated RAW264.7 cells); type: cell-based
Method: (§1) RAW264.7 macrophages were purchased from the National Collection of Authenticated Cell Cultures (Shanghai, China). The cell culture medium was supplemented with 10% fetal bovine serum and 100 U/mL penicillin and 100 μg/mL streptomycin in DMEM culture medium.
The viability of RAW264.7 cells was measured by Cell Counting Kit (CCK-8). Briefly, RAW264.7 cells were plated into 96-well plates at a density of 5×10^4 cells/well and incubated at 37 °C, 5% CO2 for 24 hours. Next the cells were exposed to 1 μg/mL lipopolysaccharides (LPS) for 24 hours to induce an inflammatory response by the RAW264.7 cells. Subsequently, the cells were exposed to different combinations of test ingredients for 24 hours. For the control, the cells were stimulated with LPS for 24 hours, followed by 24 hours with medium only. […] The absorbance was recorded on an automatic microplate reader with an […] of 450 nm. The higher the measured value, the higher the number of viable cells.
The macrophage proliferation is expressed as a percentage compared to the control (LPS only) which was set to 100%. […]
For this evaluation, the concentration at which each test ingredient provided an equivalent effect on macrophage proliferation was determined.
A combination of two compounds was considered as having synergy if both values, as calculated according to formulas 1a and 1b below, were higher than 1. […]

RAW264.7 macrophages [2] = assay: ROS production (DCFH-DA probe in LPS-stimulated RAW264.7 cells); type: cell-based; conditions: Mus musculus, 10 μg/mL, relative to control (LPS only) set to 100%
Method: as §1
The accumulation of ROS was assessed by the radical probe DCFH-DA. At the beginning, RAW264.7 cells were seeded in 6-well plate at 1×10^6 cells/well for 24 hours followed by a 24 hour exposure to LPS to induce an inflammatory response by the RAW264.7 cells. Subsequently, the cells were exposed to different combinations of test ingredients. For the control, the cells were stimulated with LPS for 24 hours, followed by 24 hour with medium only. All experiments were performed in triplicate. […] After incubation at 37 °C for 20 minutes in the dark, the cells were washed and lysed to release intracellular DCF and the fluorescence intensity was detected at 488 nm excitation and 525 nm emission using a microplate spectrofluorometer. The higher the measured value, the higher the level of ROS.
A combination of two compounds was considered as having synergy if both values, as calculated according to formulas 1a and 1b below, were higher than 1. […] If a combination of three compounds were to be evaluated, a similar logic is applied, but the assessed concentration in the combination is divided by 3 and three comparisons are made. […]

## O=C(O)c1cc(C(=O)O)c2c(n1)C(=O)C(=O)c1cc(C(=O)O)[nH]c1-2 [PQQ, Pyrroloquinoline quinone]
RAW264.7 macrophages [1]; Mus musculus, RAW264.7, 24 h, Example 2, 10 μg/mL, relative to control (LPS only) set to 100%
  activity at 10 µg/mL: 142 ± 14.1%
RAW264.7 macrophages [1]; Table 4, LPS-stimulated RAW264.7 cells
  Concentration that provided an equivalent effect on macrophage proliferation: 10 µg/mL
RAW264.7 macrophages [2]
  activity at 10 µg/mL: 62.8 ± 5.3%
